Here are results for ten substances from patent US6673902B2, “Cyclin D binding factor, and uses thereof” (St. Jude Children's Research Hospital, priority 1996, dated 2004).

One data set concerns the target T1, recombinant DMP1 (Mus musculus, UniProt Q8CE22).
T1 construct: made in house; host or cells: Sf9 insect cells, pAcYM1 baculovirus vector; used as crude lysate (~4 ng DMP1 per reaction)
T1 sequence (Q8CE22 1-761): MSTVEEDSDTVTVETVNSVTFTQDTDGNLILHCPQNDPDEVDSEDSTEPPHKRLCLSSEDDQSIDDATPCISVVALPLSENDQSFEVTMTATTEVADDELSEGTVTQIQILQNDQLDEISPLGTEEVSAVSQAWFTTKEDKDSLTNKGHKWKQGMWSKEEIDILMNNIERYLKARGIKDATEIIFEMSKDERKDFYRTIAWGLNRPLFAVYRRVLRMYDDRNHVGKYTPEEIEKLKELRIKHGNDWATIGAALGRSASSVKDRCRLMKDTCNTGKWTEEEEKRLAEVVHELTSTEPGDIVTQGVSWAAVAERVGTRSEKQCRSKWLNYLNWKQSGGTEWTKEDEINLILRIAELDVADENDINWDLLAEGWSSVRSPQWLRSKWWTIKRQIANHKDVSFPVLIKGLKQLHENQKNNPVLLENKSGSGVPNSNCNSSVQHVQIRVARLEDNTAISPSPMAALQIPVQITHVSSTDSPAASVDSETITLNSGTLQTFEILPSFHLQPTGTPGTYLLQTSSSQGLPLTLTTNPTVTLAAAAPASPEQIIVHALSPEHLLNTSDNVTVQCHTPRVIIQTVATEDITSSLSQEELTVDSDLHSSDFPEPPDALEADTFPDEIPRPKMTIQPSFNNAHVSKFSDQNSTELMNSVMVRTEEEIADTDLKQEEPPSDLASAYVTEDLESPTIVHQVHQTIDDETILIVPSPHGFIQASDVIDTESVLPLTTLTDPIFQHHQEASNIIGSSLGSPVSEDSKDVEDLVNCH
In words: EMSA competition with Sf9 lysates producing recombinant DMP1. It counts as binding. Conditions: excess unlabeled oligonucleotide. How it is done: (§1) Double-stranded oligonucleotides containing potential DMP1 binding sites (BS1 and BS2) and mutated versions (M1-M4) (FIG. 5B) are end-labeled with ^32P using the Klenow fragment of DNA polymerase and α-^32P-dATP (6000 Ci/mmol; Dupont NEN) (8). Nuclear extracts from mouse NIH-3T3 or CTLL cells are prepared with buffer containing 0.4 M NaCl (2). Mammalian cell extracts (15 μg protein) or Sf9 lysates (corresponding to 5×10^2 infected cells) containing ˜4 ng recombinant DMP1 are mixed with 3 ng of ^32P-labeled probe (1×10^5 cpm) in 15 ul Binding buffer containing 2.5 μg of poly(dI-dC) and 2.5 μg BSA and incubated at 4° C. for 30 minutes. For competition experiments, the indicated amounts of unlabeled oligonucleotides are added to the reactions before addition of the labeled probe. In some experiments, a bacterially produced GST-Ets2 fusion protein containing the complete Ets2 DNA-binding domain (10) is used in place of Sf9 extracts containing recombinant DMP1. Protein-DNA complexes are separated on nondenaturing 4% polyacrylamide gels as described (8). Where indicated, antiserum to DMP1 together with 2.5 μg salmon testis DNA (Sigma; used to reduce nonspecific DNA binding activity caused by serum addition) is preincubated with extracts for 30 minutes at 4° C. prior to initiation of binding reactions. Immune complexes are either removed by adsorption to protein A-Sepharose beads (immunodepletion experiments) or are allowed to remain (“supershift” experiments).
(§2) Using electrophoretic mobility shift assays (EMSA) performed after mixing a titrated excess (3 ng) of ^32P-end labeled BS1 probe with Sf9 lysates producing DMP1 (˜4 ng recombinant protein per reaction), a BS1-containing protein complex is detected that was competed with an excess of unlabeled BS1 oligonucleotide but not with mutant oligonucleotides M1 and M2 (FIG. 6A). […] More subtle mutations within this region may be tolerated, because high concentrations of M4 competed for BS1 binding to both Ets2 and DMP1 in subsequent studies (FIG. 5B and see below). DMP1 also binds a BS2 probe, and the binding is competed by excess BS2 or BS1 (FIG. 6B). In agreement with the site selection frequencies (FIG. 5A), binding of ^32P-BS1 under equivalent conditions was competed more efficiently by excess unlabeled BS1 than by BS2 (FIG. 6B). […] In agreement, Ets2 binding to BS1 could be competed with excess unlabeled BS1 and M3, but not by BS2 (FIG. 6C). Therefore, although both DMP1 and Ets2 can each bind to BS1 sequences, their exclusive interactions with BS2 and M3, respectively, help to distinguish DMP1 and Ets binding activities (summarized in FIG. 5B).

The test system of another data set is 32P-BS2 Probe. Description: EMSA with 32P-BS2 probe on transfection lysates of NIH-3T3 fibroblasts. Type of data set: binding. Conditions: EMSA, 32P-BS2 probe, lysates of transfected NIH-3T3 fibroblasts. On the procedure: as §1
A series of deletion mutants and a point mutant of DMP1, K319E, (in which the lysine at position 319 of SEQ ID NO:1 is replaced by a glutamic acid) were prepared and used to determine the DNA-binding domain of DMP1 by electrophoretic mobility shift assay (EMSA) using a ^32P labeled BS2 probe. The DNA-binding domain of DMP1 was mapped to a central region containing the three MYB repeats plus adjacent flanking sequences: a BstEII to NcoI fragment encoding amino acids 87-458 of SEQ ID NO:1 (Table 1). This region alone was necessary and sufficient for DNA binding.

Data set [1] concerns DMP1-responsive promoter (pGL2BS2). Description: Transactivation of luciferase reporter plasmid under control of a DMP1-responsive promoter in NIH-3T3 fibroblasts. It counts as cell-based, mouse. Conditions: expression vector 3 μg/10 ml, pGL2BS2 8 μg/10 ml; vector without insert set to 1.0. From the text: Coexpression of a D-type cyclin with DMP1 overrides the ability of DMP1 to transactivate a luciferase gene under the control of an artificial DMP1-responsive promoter (Table 4), as well as the ability of DMP1 to inhibit cell growth.

Another data set concerns the target T2, GST-Ets2 fusion protein (Homo sapiens, UniProt P15036).
T2 construct: made in house; host or cells: bacteria
T2 sequence (P15036 363-443 limits assumed): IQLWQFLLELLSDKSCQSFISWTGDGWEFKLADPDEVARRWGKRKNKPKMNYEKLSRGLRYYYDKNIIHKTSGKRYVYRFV
Description: EMSA competition with bacterial GST-Ets2 fusion protein. Type of data set: binding. As to conditions: excess unlabeled oligonucleotide. On the procedure: as §1, §2

For another data set, the system named is NIH-3T3 fibroblasts. In words: BrdU incorporation in transfected NIH-3T3 fibroblasts. Type of data set: cell-based, mouse. As to conditions: for % Cells BrdU Positive: Table 2, expression vector 3 μg/10 ml; for % Cells BrdU Positive in 10% FCS: nonstarved cells; for % Cells BrdU Positive in 10% FCS / % Cells BrdU Positive in 0.1% FCS: additive None, labeled 22 hours; for % Cells BrdU Positive in 0.1% FCS: starved cells. How it is done:
BrdU is added to NIH-3T3 cells after the experimental treatment and the cells were incubated for twenty-two hours in DMEM plus 10% fetal calf serum (FCS). The cells were then stained for DMP1 expression and/or BrdU incorporation. The nucleic acids encoding the wildtype DMP1 and the deletion and point mutants had been constructed so as to express the corresponding proteins with Flag-tags. To stain for DMP1 expression, mouse monoclonal anti-Flag antibodies (12 μg/ml) [Kodak] were incubated with the cells in TBS-Ca^+ without FCS for one hour at room temperature. After washing the cells, horse anti-mouse biotinylated antibodies at a 1:500 dilution were added to the cells in TBS plus 5% FCS and incubated for 30 minutes at room temperature. After washing the cells, strefptavidin linked to Texas red [Amersham] was then added at a 1:500 dilution for 30 minutes at room temperature. To stain for BrdU incorporation, 1.5N HCl was added to the cells for ten minutes at room temperature to denature the DNA. After washing the cells, sheep anti-BrdU antibodies [Fitzgerald] at a 1:12 dilution were then added for one hour at room temperature. After washing the cells, rabbit FITC-conjugated anti-sheep antibodies [Vector] at 1:100 dilution was then incubated for 30 minutes at room temperature.
NIH-3T3 cells were placed on cover slides and transfected with the expression vectors (pFLEX-DMP1 or the corresponding vector containing the deletion or point mutants of mouse DMP1 plus or minus cyclin D or E) for fourteen hours. The cells were then washed twice and DMEM plus 10% FCS was added and the cells incubated for eight hours. Half of the cells were starved by washing twice with 0.1% FCS, and then incubated for twenty-four hours in 0.1% FCS in DMEM. The remaining cells were not starved but were incubated for twenty-four hours in DMEM plus 10% FCS without washing. BrdU was added to both groups of cells and the cells were incubated for twenty-two hours in DMEM plus 10% FCS.
The cells were then restimulated to enter the cell cycle synchronously with DMEM plus 10% FCS. At the same time, 5′-Bromo-2′ Deoxyuridine (BrdU) was added to the medium. The cells were fixed 22 hours later in methanol acetone (1:1) and stained for BrdU incorporation and DMP1 expression as described in the Materials and Methods.

The target of another data set is T3, cyclin D1 (Mus musculus, UniProt P25322).
T3 construct: expressed in transfected cells; host or cells: SF9 insect cells
In words: Flag immunoprecipitation from SF9 lysates and Western blot for cyclin D1. It counts as binding. As to conditions: cotransfected with cyclin D1 in SF9 cells. The text has this: The series of DMP1 deletion mutants and the K319E point mutant were then used to determine the cyclin D binding domain of DMP1. Expression vectors encoding murine wild-type DMP1, the corresponding deletion mutations, or K319E (i.e., wildtype DMP1 and M1-M11, defined in FIG. 10, Table 1) were cotransfected with an expression vector encoding cyclin D1 into SF9 cells. Wildtype DMP1 and M1-M11 were expressed containing Flag-tags. SF9 lysates were immunoprecipitated with an antibody raised against the Flag-tag. The immunoprecipitates were resolved individually by gel electrophoresis, and then Western blotted with an antibody raised against cyclin D1. […] Therefore, deletion of the N-terminal domain of DMP1 (i.e., amino acids 1-223) abrogates its ability to interact with D-type cyclins, and thus, the region of DMP1 from residues 1-223 contains a specific cyclin D interaction motif required for D-type cyclin-DMP1 association.

T3 sequence (P25322 whole entry): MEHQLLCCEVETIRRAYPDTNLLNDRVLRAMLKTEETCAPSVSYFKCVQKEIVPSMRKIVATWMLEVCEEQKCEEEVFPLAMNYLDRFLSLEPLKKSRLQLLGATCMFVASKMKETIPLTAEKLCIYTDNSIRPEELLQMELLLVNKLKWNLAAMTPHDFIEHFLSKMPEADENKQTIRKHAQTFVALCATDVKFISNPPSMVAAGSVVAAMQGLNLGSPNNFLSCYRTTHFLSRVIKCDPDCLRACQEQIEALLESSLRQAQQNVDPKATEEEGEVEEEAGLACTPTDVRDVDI

As for “M4: DMP1 deletion mutant (BstBI), amino acids 1-380 of SEQ ID NO:1”, the “competition for 32P-BS1 probe binding to DMP1” value with recombinant DMP1 is “competed”. In addition, in the data set on 32P-BS2 Probe, the “32P-labeled Band” value is “No”. In data set [1], the “Luciferase Activity” value is 1.0. Moreover, in the data set with GST-Ets2 fusion protein, the “competition for BS1 binding to Ets2” value is “competed”. Also, the “% Cells BrdU Positive” value in the data set with NIH-3T3 fibroblasts is reported as 52%.

Take “M9: DMP1 5′ deletion mutant, amino acids 234-761 of SEQ ID NO:1”: the “32P-labeled Band” value with 32P-BS2 Probe is on record as “No”. Further, the “Luciferase Activity” value in data set [1] was 1.0. The “band corresponding to cyclin D1 in Flag immunoprecipitate” value with cyclin D1 is on record as “cyclin D1 binding domain is missing”. In the data set with NIH-3T3 fibroblasts, the “% Cells BrdU Positive” value came to 50%.

In the case of “M5: DMP1 deletion mutant (XbaI and BstEII), amino acids 87-761 of SEQ ID NO:1”, in the data set on 32P-BS2 Probe, the “32P-labeled Band” value was “Yes”. Also, the “Luciferase Activity” value in data set [1] worked out at 6.2. Besides, the “band corresponding to cyclin D1 in Flag immunoprecipitate” value with cyclin D1 is “particularly faint”. The “% Cells BrdU Positive” value with NIH-3T3 fibroblasts stood at 32%.

Turning to “oligonucleotide BS1: probe/competitor BS1, SEQ ID NO:10, DMP1 binding site with GGA core (DNA AATTGACCCGGATGTAGGTACGC; chemistry not given here)”, in the data set with recombinant DMP1, the “competition for 32P-BS1 probe binding to DMP1” value is recorded as “competed” and the “competition for BS2 probe binding to DMP1” value was “competed”. For the same substance, the “competition for BS1 binding to Ets2” value with GST-Ets2 fusion protein is “competed”.

Consider “M10: DMP1 deletion mutant (BstEII and NcoI), amino acids 87-458 of SEQ ID NO:1”, for which the “32P-labeled Band” value in the data set with 32P-BS2 Probe is listed as “Yes”. Besides, the “Luciferase Activity” value in data set [1] is 1.1. Also, the “% Cells BrdU Positive” value in the data set on NIH-3T3 fibroblasts worked out at 56%.

As for “M7: DMP1 deletion mutant, amino acids 1-169; 238-761 of SEQ ID NO:1”, in the data set on 32P-BS2 Probe, the “32P-labeled Band” value is “No”. The “Luciferase Activity” value in data set [1] is reported as 0.9. For the same substance, the “% Cells BrdU Positive” value in the data set with NIH-3T3 fibroblasts is reported as 36%.

In the case of “M2: DMP1 deletion mutant (StuI), amino acids 1-520 of SEQ ID NO:1”, in the data set with recombinant DMP1, the “competition for 32P-BS1 probe binding to DMP1” value is recorded as “not”. Besides, the “32P-labeled Band” value in the data set with 32P-BS2 Probe is recorded as “Yes”. Further, the “Luciferase Activity” value in data set [1] is 3.6. Further, the “% Cells BrdU Positive” value in the data set with NIH-3T3 fibroblasts was 20%.

Take “M1: DMP1 deletion mutant (EcoNI), amino acids 1-661 of SEQ ID NO:1”: the “competition for 32P-BS1 probe binding to DMP1” value with recombinant DMP1 is “not”. Moreover, the “32P-labeled Band” value with 32P-BS2 Probe is “Yes”. Besides, in data set [1], the “Luciferase Activity” value is recorded as 6.7. The “% Cells BrdU Positive” value in the data set on NIH-3T3 fibroblasts is on record as 12%.

As to “M6: DMP1 deletion mutant, amino acids 1-86; 170-761 of SEQ ID NO:1”, the “32P-labeled Band” value in the data set with 32P-BS2 Probe is on record as “No”. In addition, in data set [1], the “Luciferase Activity” value is listed as 1.0. In the data set on NIH-3T3 fibroblasts, the “% Cells BrdU Positive” value stood at 48%, the “% Cells BrdU Positive in 10% FCS” value turned out to be 44% and the “% Cells BrdU Positive in 0.1% FCS” value stood at 47%.

“M8: DMP1 deletion mutant, amino acids 1-237; 381-761 of SEQ ID NO:1”: the “32P-labeled Band” value with 32P-BS2 Probe is listed as “No”. Moreover, the “Luciferase Activity” value in data set [1] worked out at 1.1. For the same substance, in the data set on NIH-3T3 fibroblasts, the “% Cells BrdU Positive” value amounted to 54%, the “% Cells BrdU Positive in 10% FCS” value amounted to 54% and the “% Cells BrdU Positive in 0.1% FCS” value was 54%.
